What all share (type): cell-based
The subject of test [1] is HepG2 cells (human hepatosarcoma). Briefly: RT-CES system cell proliferation/cytotoxicity, HepG2. The conditions noted are these: for IC50: Homo sapiens, HepG2, time point of maximum inhibition. The source says: (§1) The RT-CES system comprises three components, an electronic sensor analyzer, a device station and 16× or 96× microtiter plate devices. Microelectrode sensor array was fabricated on glass slides with lithographical microfabrication methods and the electrode-containing slides are assembled to plastic trays to form electrode-containing wells. Each 16× (or 96×) microtiter plate device used in RT-CES system comprises up to 16 (or 96) such electrode-containing wells. The device station receives the 16× or 96× microtiter plate devices and is capable of electronically switching any one of the wells to the sensor analyzer for impedance measurement. In operation, the devices with cells cultured in the wells are placed into a device station that is located inside an incubator. Electrical cables connect the device station to the sensor analyzer. Under the RT-CES software control, the sensor analyzer can automatically select wells to be measured and continuously conduct impedance measurements. The impedance data from the analyzer is transferred to a computer, analyzed and processed by the integrated software.
(§2) To quantify cell status based on the measured cell-electrode impedance, a parameter termed Cell Index is derived, according to
(§3) [formula] where Rb(f) and Rcell(f) are the frequency dependent electrode resistances (a component of impedance) without cells or with cell present, respectively. N is the number of the frequency points at which the impedance is measured. Thus, Cell Index is a quantitative measure of the status of the cells in an electrode-containing well. Under the same physiological conditions, more cells attached on to the electrodes leads to larger Rcell(f) value, leading to a larger value for Cell Index. Furthermore, for the same number of cells present in the well, a change in the cell status such as morphology will lead to a change in the Cell Index. For example, an increase in cell adhesion or cell spreading leads to larger cell-electrode contact area which will lead to an increase in Rcell(f) and thus a larger value for Cell Index. The Cell Index may also be calculated using a formula different from the one described here. Other methods for calculating the Cell Index based on impedance measurement can be found in PCT application number PCT/US04/37696, fined on Nov. 12, 2004, PCT application number PCT/US05/04481, filed on Feb. 9, 2005, U.S. patent application Ser. No. 10/987,732, filed on Nov. 12, 2004, and U.S. patent application Ser. No. 11/055,639, filed on Feb. 9, 2005.
Different types of human cancer cells, including NCI-H460 (non-small cell lung cancer cells), MV522 SW (non-small cell lung cancer cells), MCF7 (breast cancer cells), A549 (non-small cell lung cancer cells), PC3 (prostate cancer cells), A431 (epidermoid cancer cells), HT1080 (fibrosarcoma cells), MDA.MB2321 (breast cancer cells), HT29 (colon cancer cells), HCC2998 (colon cancer cells), OVCAR4 (ovarian cancer cells), A2780 (ovarian cancer cells) and HepG2 (human hepatosarcoma) with different numbers (4000 to 20,000 per well) were seeded into 16× or 96× microtiter device and monitored by RT-CES™ system. The cells were allowed to grow for about 24 hours prior to the addition of dibenzyl trisulfide dissolved in DMSO solution (final DMSO concentration: 0.2%; final dibenzyl trisulfide concentration: between 1.5625 μM and 100 μM). The cell-electrode impedance was continuously measured and the corresponding, time dependent cell-index values were derived and recorded.
HepG2 cells (human hepatosarcoma cells) were seeded into wells of 16× or 96× microtiter plate devices (electronic plates, i.e., the plates comprise microelectrode sensor arrays in the wells of the plate) with an initial seeding density of 15,000 cells per well and were pre-incubated in incubator under standard cell culture conditions for about 22 hrs. Dibenzyl trisulfide solution in DMSO was added into wells following the incubation period. […]

Test [2] has as its system HepG2 cells. Briefly: MTT assay IC50 (48 h), HepG2 (eighth cell line not given). The following applies: Homo sapiens; HepG2, 48 hours. On the procedure: In another assay format, a test compound is assayed for its cytotoxicity and/or cytostatic effect on certain cancer cell types, using endpoint assay methods. Cells in the NCI cancer cell panel may be used. Cells after a pre-incubation for certain length of time (for example, 8 hrs or 24 hrs) are incubated with a test compound at serially-diluted concentrations (for example, five 10-fold dilutions) for 24 hrs and/or 48 hrs, and/or other specific length of time. The dose dependent cytotoxicity and/or cytostatic effects of test compounds can then be tested and evaluated using the 3-(4,5-dimethylthiazol-2-yl)-2,5-diphenyltetrazolium bromide (MTT) assay method, as described by, for example, Boyd (In Principle of Practice of Oncology, Devita, J. T., Hellman, S. and Rosenberg S. A. (Eds), 1989, Vol, 3, PPO Update, No. 10).
The anticancer potency of DBTS and its derivatives were tested in 8 different types of human cancer cell lines using the RT-CES system and MTT assay. The 8 cancer cell lines were HT1080 (the human fibrosarcoma cell line), H460 (human non small cell lung cancer cell line), OVCAR4 (the human ovarian cancer cell line), MCF7 (human breast cancer cell line) MDA-MB231 (M231, the human breast cancer cell line) A2780 (the human […] cancer cell line) Jurkat (the human T cell leukemia cell line). The test DBTS derivatives include ACEA100107, ACEA100108, ACEA100109, ACEA100111, ACEA100115, ACEA100116, ACEA100117, ACEA100118, ACEA100119, and ACEA100120.
For the MTT assay, the cells were seeded into the regular 96× well plates at the cell seeding density ranging from 5000 cells/well to 15,000 cells/well. The cells were incubated at 5% CO2 and 37° C. for overnight. The derivatives were serially diluted and added to the cells. The treatment was terminated after 48 hours of incubation by adding MTT staining reagent. After 4 hours, the staining was stopped by the stop buffer and then the calorimetric measurement was carried out on a microtiter plate reader at dual wave length, 650 nm and 550 nm.
(In general: Tetrazolium dyes change colour on reduction, which living cells bring about.)

Test [3] has as its system MDA-MB231 (M231, human breast cancer cell line). Briefly: RT-CES system cell proliferation/cytotoxicity IC50, MDA-MB231. The conditions noted are these: MDA-MB-231, time point of maximum inhibition.
Excerpt: as §1, §2, §3
Dibenzyl trisulfide solution in DMSO was added into wells following the incubation period. The cell status was monitored prior to and after the compound addition using RT-CES system. The cell indexes of different wells were between 0.65 and 0.82 just before the compound addition. […] The cell index was normalized against the cell index values at a time point just after compound addition (about 19.6 hrs after cell seeding).
For the assay performed on the RT-CES system, the cells were seeded into the 16× or 96× microtiter plate devices (electronic plates, i.e., the plates comprise microelectrode sensor arrays in the wells of the plate) at the seeding density ranging from 5000 cells/well to 15,000 cells/well. The cells were incubated at 5% CO2 and 37° C. for overnight till the cell indices reached the growth phase where the cell index was between 0.8 and 1.2. Serially diluted compounds were then added to the cells followed by dynamic monitoring of the effect of the compounds on the cell proliferation and cytotoxicity. The time-dependent IC50 values for each derivative were calculated based the dose responses of cell index value at different time points after compound treatment.
The anticancer potency of a DBTS derivative, ACEA100108 was tested in 7 cancer cell lines on the […]. The cell lines were HT1080, H460, OVCAR4, MCF7, MDA-MB231, HepG2, and A2780. […]

The values that follow come from patent US8334316B2, “Substituted organosulfur compounds and methods of using thereof” (ACEA Biosciences, Inc., priority 2004, dated 2012).

Entries after “also recorded” stand apart in the source; their conditions may differ.

What is called IC50 is the midpoint of a concentration-inhibition curve. The low end stands for greater potency in that assay, the high end for weaker potency in that assay. Regarding `Fc1ccc(CSSSCc2ccc(F)cc2)cc1` [ACEA100108, Di(p-fluorobenzyl)trisulfide], the IC50 is over 50 µM in test [1], over 50 µM in test [2] and 3.05 µM in test [3].

As for `Clc1ccccc1CSSSCc1ccccc1Cl` [ACEA100115, Di(o-chlorobenzyl)trisulfide], the figures for the IC50 in test [1], in test [2] and in test [3] were over 50 µM, over 50 µM and 1.06 µM, respectively.

Turning to `Cc1cccc(CSSSCc2cccc(C)c2)c1` [ACEA100116, di(m-methylbenzyl)trisulfide], the 50% inhibitory concentration (IC50) in test [1] is over 50 µM; in test [2], over 50 µM; in test [3] it was 1.06 µM.

Take `FC(F)(F)c1cccc(CSSSCc2cccc(C(F)(F)F)c2)c1` [ACEA100117, Di(m-trifluoromethylbenzyl)trisulfide]: the IC50 was over 50 µM in test [1], over 50 µM in test [2] and 41 µM in test [3].

For the molecule `Clc1ccc(CSSSCc2ccc(Cl)cc2)cc1` [ACEA100118, Di(p-chlorobenzyl)trisulfide], the half-inhibitory concentration (IC50) is over 50 µM in test [1], over 50 µM in test [2] and 2.3 µM in test [3].

Regarding `c1ccc(CSSSCc2ccccc2)cc1` [DBTS, Dibenzyl trisulfide], the IC50 in test [1] was over 50 µM; in test [2] it was over 50 µM; in test [3], 2.4 µM. The “Effect on HepG2 cell proliferation (cell index)” value in test [1] (within the exposing dose range (1.5625-100 μM)) was “did not demonstrate anti-proliferation ability; also recorded: exhibits no inhibition effect on HepG2 cell proliferation and no cytotoxic effect”.
